The target in experiment [1] is T1, HiBit-KRAS^G12C (Homo sapiens, UniProt P01116, G12C). The experiment can be described thus: HiBit degradation assay in MiaPaCa-2 HiBit-KRas^G12C cells. The experiment is classed as cell-based. As to conditions: 24 hours. Summed up:
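MiaPaCa-2 cells with CRISPR N-terminal HiBit knock-in on one endogenous KRAS^G12C allele, treated 24 hours at 37° C with compound titrated 10 μM to 20 nM (0.1% or 0.5% DMSO). Lytic HiBit luminescence normalized to DMSO, 4-parameter fit giving DC50 and Dmax; points cytotoxic to […] cells by alamar blue excluded.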
(In general: With HiBiT, luminescence reflects the tagged protein that the partner subunit can reach.)

The target of experiment [2] is T1, HiBit-KRAS^G12C. The experiment can be described thus: HiBit degradation assay in SW1573 HiBit-KRas^G12C cells. It is filed as cell-based. Further details: expressed in transfected cells; host or cells: SW1573 (clone E6), modified pcDNA3.1 vector, TK promoter. As to conditions: 24 hours. Summed up:
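SW1573 cells stably expressing N-terminally HiBit-tagged KRAS G12C, under the TK promoter, were treated 24 h at 37 °C with 10 μM to 20 nM compound in 0.1% or 0.5% DMSO. Residual HiBit luminescence normalised to DMSO and fitted with a 4-parameter model for DC50 and Dmax. Points with ≥50% viability loss (alamar blue) excluded.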

Where [3] appears, read: MIA PaCa-2, read-out: KRas^G12C-HiBiT (MiaPaCa; 0.1% DMSO) DMax, MiaPaCa-2 HiBit-KRas^G12C cells, 0.1% DMSO, maximum degradation.
Setting [4] is: MIA PaCa-2, read-out: KRas^G12C-HiBiT (MiaPaCa; 0.5% DMSO) DMax, MiaPaCa-2 HiBit-KRas^G12C cells, 0.5% DMSO, maximum degradation.
The mark [5] stands for this setting: read-out: KRas^G12C-HiBiT (MiaPaCa; 0.1% DMSO) IC50, MiaPaCa-2 HiBit-KRas^G12C cells, 0.1% DMSO.
The mark [6] stands for this setting: SW1573, read-out: KRas^G12C-HiBiT (SW1573; 0.5% DMSO) Dmax**, SW1573 HiBit-KRas^G12C, 0.5% DMSO.
The mark [7] stands for this setting: SW1573, read-out: KRas^G12C-HiBit (SW1573; 0.1% DMSO) Dmax**, SW1573 HiBit-KRas^G12C, 0.1% DMSO.
The mark [8] stands for this setting: SW1573 HiBit-KRas^G12C, 0.1% DMSO, read-out: KRas^G12C-HIBit (SW1573; 0.1% DMSO) DC50*.
Where [9] appears, read: MIA PaCa-2, MiaPaCa-2 HiBit-KRas^G12C cells, 0.1% DMSO, maximum degradation, read-out: KRas^G12C-HiBiT (MiaPaCa; 0.1% DMSO) DMax.
Where [10] appears, read: MIA PaCa-2, MiaPaCa-2 HiBit-KRas^G12C cells, 0.5% DMSO, maximum degradation, read-out: KRas^G12C-HiBiT (MiaPaCa; 0.5% DMSO) DMax.
[11] abbreviates: SW1573, SW1573 HiBit-KRas^G12C, 0.1% DMSO, read-out: KRas^G12C-HiBit (SW1573; 0.1% DMSO) Dmax**.
Setting [12] is: SW1573, SW1573 HiBit-KRas^G12C, 0.5% DMSO, read-out: KRas^G12C-HiBiT (SW1573; 0.5% DMSO) Dmax**.
The mark [13] stands for this setting: read-out: KRas^G12C-HiBiT (MiaPaCa; 0.5% DMSO) IC50, MiaPaCa-2 HiBit-KRas^G12C cells, 0.5% DMSO.
Setting [14] is: read-out: KRas^G12C-HiBiT (SW1573; 0.5% DMSO) IC50***, SW1573 HiBit-KRas^G12C, 0.5% DMSO.

The values that follow come from patent US20220370416A1, “COMPOUNDS AND METHODS FOR TARGETED DEGRADATION OF KRAS” (Arvinas Operations, Inc., priority 2020, published 2022).

T1 sequence (P01116 1-186 isoform P01116-2 G12C limits assumed): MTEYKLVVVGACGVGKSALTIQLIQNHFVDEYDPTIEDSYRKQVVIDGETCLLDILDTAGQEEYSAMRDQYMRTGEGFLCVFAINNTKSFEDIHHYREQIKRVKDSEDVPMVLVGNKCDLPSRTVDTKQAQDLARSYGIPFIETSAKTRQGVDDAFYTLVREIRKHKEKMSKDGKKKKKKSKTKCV

For `C=CC(=O)N1CCN(c2nc(O[C@H](C)CN3CCN(C4CN(CC(=O)N[C@H](C(=O)N5C[C@H](O)C[C@H]5C(=O)N[C@@H](C)c5ccc(-c6scnc6C)cc5)C(C)(C)C)C4)CC3)nc3c(F)c(-c4cc(O)cc5ccccc45)c(Cl)cc23)CC1` [Compound 40, (2S,4R)-1-[(2S)-2-[2-(3-{4-[(2R)-2-{[6-chloro-8-fluoro-7-(3-hydroxynaphthalen-1-yl)-4-[4-(prop-2-enoyl)piperazin-1-yl]quinazolin-2-yl]oxy}propyl]piperazin-1-yl}azetidin-1-yl)acetamido]-3,3-dimethylbutanoyl]-4-hydroxy-N-[(1S)-1-[4-(4-methyl-1,3-thiazol-5-yl)phenyl]ethyl]pyrrolidine-2-carboxamide], the Dmax at HiBit-KRAS^G12C [1] (setting [3]) is less than 35%; at HiBit-KRAS^G12C [1] (setting [4]), less than 35%; at HiBit-KRAS^G12C [2] (setting [6]) it was 35 to 70%; on HiBit-KRAS^G12C [2] (setting [7]), 35 to 70%. Besides, the DC50 on HiBit-KRAS^G12C [1] (setting [5]) was 0.1 to 1 µM; at HiBit-KRAS^G12C [2] (setting [8]), greater than 1 µM.
`C=CC(=O)N1CCN(c2nc(OCCN3CCC(COCC(=O)N[C@H](C(=O)N4C[C@H](O)C[C@H]4C(=O)N[C@@H](C)c4ccc(-c5scnc5C)cc4)C(C)(C)C)CC3)nc3c(F)c(-c4cc(O)cc5ccccc45)c(Cl)cc23)C[C@@H]1CC#N` (atropisomer, axis not shown) [Compound 110, (2S,4R)-1-[(2S)-2-[2-({1-[2-({6-chloro-4-[(3S)-3-(cyanomethyl)-4-(prop-2-enoyl)piperazin-1-yl]-8-fluoro-7-(3-hydroxynaphthalen-1-yl)quinazolin-2-yl}oxy)ethyl]piperidin-4-yl}methoxy)acetamido]-3,3-dimethylbutanoyl]-4-hydroxy-N-[(1S)-1-[4-(4-methyl-1,3-thiazol-5-yl)phenyl]ethyl]pyrrolidine-2-carboxamide]: the “KRas^G12C-HiBiT (MiaPaCa; 0.5% DMSO) DMax” value at HiBit-KRAS^G12C [1] (MiaPaCa-2 HiBit-KRas^G12C cells, 0.5% DMSO, maximum degradation) is listed as “C (C ≤ 35)”. Also, the “KRas^G12C-HiBiT (SW1573; 0.5% DMSO) Dmax**” value at HiBit-KRAS^G12C [2] (SW1573 HiBit-KRas^G12C, 0.5% DMSO) is listed as “C (C ≤ 35)”.
Turning to `C=CC(=O)N1CCN(c2nc(O[C@H](C)CN3CCC(COc4cc([C@@H](C(=O)N5C[C@H](O)C[C@H]5C(=O)N[C@@H](C)c5ccc(-c6scnc6C)cc5)C(C)C)on4)CC3)nc3c(F)c(-c4cc(O)cc5ccccc45)c(Cl)cc23)CC1` [Compound 20, (2S,4R)-1-[(2S)-2-[3-({1-[(2R)-2-{[6-chloro-8-fluoro-7-(3-hydroxynaphthalen-1-yl)-4-[4-(prop-2-enoyl)piperazin-1-yl]quinazolin-2-yl]oxy}propyl]piperidin-4-yl}methoxy)-1,2-oxazol-5-yl]-3-methylbutanoyl]-4-hydroxy-N-[(1S)-1-[4-(4-methyl-1,3-thiazol-5-yl)phenyl]ethyl]pyrrolidine-2-carboxamide], the Dmax at HiBit-KRAS^G12C [1] (setting [9]), on HiBit-KRAS^G12C [1] (setting [10]), at HiBit-KRAS^G12C [2] (setting [11]) and on HiBit-KRAS^G12C [2] (setting [12]) was 35 to 70% in each case. The DC50 on HiBit-KRAS^G12C [2] (setting [8]) was 0.1 to 1 µM.
Regarding `C=CC(=O)N1CCN(c2nc(OCCN3CCC(OCCOCCOCC(=O)N[C@H](C(=O)N4C[C@H](O)C[C@H]4C(=O)N[C@@H](C)c4ccc(-c5scnc5C)cc4)C(C)(C)C)CC3)nc3c(F)c(-c4cc(O)cc5ccccc45)c(Cl)cc23)CC1` [Compound 60, (2S,4R)-1-[(2S)-2-{2-[2-(2-{[1-(2-{[6-chloro-8-fluoro-7-(3-hydroxynaphthalen-1-yl)-4-[4-(prop-2-enoyl)piperazin-1-yl]quinazolin-2-yl]oxy}ethyl)piperidin-4-yl]oxy}ethoxy)ethoxy]acetamido}-3,3-dimethylbutanoyl]-4-hydroxy-N-[(1S)-1-[4-(4-methyl-1,3-thiazol-5-yl)phenyl]ethyl]pyrrolidine-2-carboxamide], the Dmax is less than 35% at HiBit-KRAS^G12C [1] (setting [10]), less than 35% at HiBit-KRAS^G12C [2] (setting [11]) and 35 to 70% on HiBit-KRAS^G12C [2] (setting [12]). The DC50 on HiBit-KRAS^G12C [1] (setting [5]) is greater than 1 µM; on HiBit-KRAS^G12C [2] (setting [8]), 0.1 to 1 µM.
As for `C=CC(=O)N1CCN(c2nc(OC[C@@H]3CCCN3CCCCOCC(=O)N[C@H](C(=O)N3C[C@H](O)C[C@H]3C(=O)N[C@@H](C)c3ccc(-c4scnc4C)cc3)C(C)(C)C)nc3c(F)c(-c4cc(O)cc5ccccc45)c(Cl)cc23)C[C@@H]1CC#N` [Compound 100, (2S,4R)-1-[(2S)-2-(2-{4-[(2S)-2-[({6-chloro-4-[(3S)-3-(cyanomethyl)-4-(prop-2-enoyl)piperazin-1-yl]-8-fluoro-7-(3-hydroxynaphthalen-1-yl)quinazolin-2-yl}oxy)methyl]pyrrolidin-1-yl]butoxy}acetamido)-3,3-dimethylbutanoyl]-4-hydroxy-N-[(1S)-1-[4-(4-methyl-1,3-thiazol-5-yl)phenyl]ethyl]pyrrolidine-2-carboxamide], the Dmax at HiBit-KRAS^G12C [1] (setting [10]) and at HiBit-KRAS^G12C [2] (setting [12]) was less than 35% throughout. The DC50 was greater than 1 µM at HiBit-KRAS^G12C [1] (setting [13]) and 0.1 to 1 µM on HiBit-KRAS^G12C [2] (setting [14]).
In the case of `C=C(F)C(=O)N1CCN(c2nc(OCCN3CCC4(CC3)CN(c3cc([C@H](C(=O)N5C[C@H](O)C[C@H]5C(=O)N[C@@H](C)c5ccc(-c6scnc6C)cc5)C(C)C)on3)C4)nc3c(F)c(-c4cc(O)cc5ccccc45)c(Cl)cc23)C[C@@H]1CC#N` (atropisomer, axis not shown) [Compound 109, (2S,4R)-1-[(2R)-2-(3-{7-[2-({6-chloro-4-[(3S)-3-(cyanomethyl)-4-(2-fluoroprop-2-enoyl)piperazin-1-yl]-8-fluoro-7-(3-hydroxynaphthalen-1-yl)quinazolin-2-yl}oxy)ethyl]-2,7-diazaspiro[3.5]nonan-2-yl}-1,2-oxazol-5-yl)-3-methylbutanoyl]-4-hydroxy-N-[(1S)-1-[4-(4-methyl-1,3-thiazol-5-yl)phenyl]ethyl]pyrrolidine-2-carboxamide], the results for the Dmax at HiBit-KRAS^G12C [1] (setting [10]) and at HiBit-KRAS^G12C [2] (setting [12]) were greater than 70% and 35 to 70%, respectively. For the same compound, the DC50 on HiBit-KRAS^G12C [1] (setting [13]) and on HiBit-KRAS^G12C [2] (setting [14]) was less than 0.1 µM in each case.
As for `C=CC(=O)N1CCN(c2nc(O[C@@H]3CCC[C@H]3N3CCC(COCC(=O)N[C@H](C(=O)N4C[C@H](O)C[C@H]4C(=O)N[C@@H](C)c4ccc(-c5scnc5C)cc4)C(C)(C)C)CC3)nc3c(F)c(-c4cc(O)cc5ccccc45)c(Cl)cc23)CC1` [Compound 13, (2S,4R)-1-[(2S)-2-[2-({1-[(1R,2R)-2-{[6-chloro-8-fluoro-7-(3-hydroxynaphthalen-1-yl)-4-[4-(prop-2-enoyl)piperazin-1-yl]quinazolin-2-yl]oxy}cyclopentyl]piperidin-4-yl}methoxy)acetamido]-3,3-dimethylbutanoyl]-4-hydroxy-N-[(1S)-1-[4-(4-methyl-1,3-thiazol-5-yl)phenyl]ethyl]pyrrolidine-2-carboxamide], the Dmax on HiBit-KRAS^G12C [1] (setting [3]), at HiBit-KRAS^G12C [1] (setting [4]), on HiBit-KRAS^G12C [2] (setting [6]) and on HiBit-KRAS^G12C [2] (setting [7]) was 35 to 70% each time. Moreover, the DC50 at HiBit-KRAS^G12C [2] (setting [8]) fell in the range of 0.1 to 1 µM.
With `C=C(F)C(=O)N1CCN(c2nc(O[C@H](C)CN3CCC(COCC(=O)N[C@H](C(=O)N4C[C@H](O)C[C@H]4C(=O)N[C@@H](C)c4ccc(-c5scnc5C)cc4)C(C)(C)C)CC3)nc3c2CCN(c2cc(O)cc4ccccc24)C3)C[C@@H]1CC#N` [Compound 24, (2S,4R)-1-[(2S)-2-[2-({1-[(2R)-2-({4-[(3S)-3-(cyanomethyl)-4-(2-fluoroprop-2-enoyl)piperazin-1-yl]-7-(3-hydroxynaphthalen-1-yl)-5H,6H,7H,8H-pyrido[3,4-d]pyrimidin-2-yl}oxy)propyl]piperidin-4-yl}methoxy)acetamido]-3,3-dimethylbutanoyl]-4-hydroxy-N-[(1S)-1-[4-(4-methyl-1,3-thiazol-5-yl)phenyl]ethyl]pyrrolidine-2-carboxamide], the Dmax at HiBit-KRAS^G12C [1] (setting [9]) and on HiBit-KRAS^G12C [2] (setting [11]) was less than 35% in each case. Further, at HiBit-KRAS^G12C [2] (setting [8]), the DC50 is greater than 1 µM.
